Target: menin protein (Homo sapiens (Human), UniProt O00255)
Assay: biochemical
Format: binding
Settings: FP competitive binding; menin protein 4 nM, FAM-MM2 probe 2 nM; read-out: Menin Binding Affinity IC50
Procedure, shortened: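 Competitive fluorescence polarization assay using FAM-labelled MLL1 peptide probe FAM-MM2 (2 nM final) preincubated with menin (4 nM final) in PBS with 0.02% bovine γ-globulin, 4% DMSO and 0.01% Triton X-100. Compounds were added and incubated 30 min at room temperature. IC50 came from nonlinear regression of competition curves, with Ki also derived.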

Sequence of menin protein (O00255 whole entry): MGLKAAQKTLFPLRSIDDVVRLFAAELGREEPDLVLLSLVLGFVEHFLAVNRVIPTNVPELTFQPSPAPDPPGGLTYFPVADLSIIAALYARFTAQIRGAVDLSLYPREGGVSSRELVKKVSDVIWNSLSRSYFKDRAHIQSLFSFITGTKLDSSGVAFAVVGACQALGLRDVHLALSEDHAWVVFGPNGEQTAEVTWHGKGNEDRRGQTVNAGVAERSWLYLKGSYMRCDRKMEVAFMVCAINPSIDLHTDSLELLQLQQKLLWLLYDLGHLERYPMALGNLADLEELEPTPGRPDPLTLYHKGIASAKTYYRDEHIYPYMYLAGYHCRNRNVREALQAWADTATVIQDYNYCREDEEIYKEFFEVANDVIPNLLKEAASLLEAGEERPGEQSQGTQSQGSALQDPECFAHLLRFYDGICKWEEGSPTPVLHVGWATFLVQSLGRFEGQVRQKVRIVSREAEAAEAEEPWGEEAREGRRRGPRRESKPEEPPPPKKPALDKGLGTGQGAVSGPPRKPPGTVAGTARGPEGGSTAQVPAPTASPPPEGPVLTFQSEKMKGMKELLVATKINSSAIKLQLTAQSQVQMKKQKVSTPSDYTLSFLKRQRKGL

SMILES | IC50 [µM]
CNC(=O)O[C@@H]1CCC[C@H]1C(C#N)(c1ccccc1)C1CCN(CC2CN(c3ccc(S(=O)(=O)c4nn(C)cc4Br)cc3)C2)CC1 (mixture of isomers) [compound 229, rac-(1R,2S)-2-((1-((1-(4-((4-bromo-1-methyl-1H-pyrazol-3-yl)sulfonyl)phenyl)azetidin-3-yl)methyl)piperidin-4-yl)(cyano)(phenyl)methyl) cyclopentyl methylcarbamate] | 0.16
CC(=O)O[C@H]1CCC[C@@H]1C(C#N)(c1ccccc1)C1CCN(CC2CN(c3ccc(C(=O)O)cc3)C2)CC1 (mixture of isomers) [compound 388, rac-4-(3-((4-(((1R,2S)-2-acetoxycyclopentyl)(cyano) (phenyl)methyl)piperidin-1-yl)methyl)azetidin-1-yl)benzoic acid] | 15.1
CNC(=O)O[C@H]1CCC[C@@H]1C(Cn1ccnc1)(c1ccccc1)C1CCN(C(=O)CCCc2ccc(C#N)cc2)CC1 (mixture of isomers) [compound 380, rac-(1S,2R)-2-(1-(1-(4-(4-cyanophenyl)butanoyl)piperidin-4-yl)-2-(1H-imidazol-1-yl)-1-phenylethyl)cyclopentyl methylcarbamate] | 0.798
CNC(=O)O[C@@H]1CCC[C@H]1C(Cn1ccnc1)(c1ccccc1)C1CCN(CC2CN(c3ccc(S(=O)(=O)c4cnn(C)c4)cc3)C2)CC1 (mixture of isomers) [compound 239, rac-(1R,2S)-2-(2-(1H-imidazol-1-yl)-1-(1-((1-(4-((1-methyl-1H-pyrazol-4-yl)sulfonyl)phenyl)azetidin-3-yl)methyl)piperidin-4-yl)-1-phenethyl)cyclopentyl methylcarbamate] | 0.046
COC(=O)N[C@@H]1CCC[C@H]1C(C#N)(c1ccccc1)C1CCN(CC2CN(c3ccc(S(=O)(=O)c4ccncc4)cc3)C2)CC1 (mixture of isomers) [Cpd. No. 346, methyl (rac-(1R,2S)-2-(cyano(phenyl)(1-((1-(4-(pyridin-4-ylsulfonyl)phenyl)azetidin-3-yl)methyl)piperidin-4-yl)methyl)cyclopentyl)carbamate] | 0.569
CN(C)C(=O)O[C@H]1CCC[C@@H]1C(C#N)(c1ccccc1)C1CCN(CC2CN(c3ccc(S(=O)(=O)c4ccncc4)cc3)C2)CC1 (mixture of isomers) [compound 220, rac-(1S,2R)-2-(cyano(phenyl)(1-((1-(4-(pyridin-4-ylsulfonyl)phenyl)azetidin-3-yl)methyl)piperidin-4-yl)methyl)cyclopentyl dimethylcarbamate] | 0.261
CNC(=O)O[C@@H]1CCC[C@H]1C(C#N)(c1ccccc1)C1CCN(CC2CN(c3ccc(C(F)(F)F)cc3)C2)CC1 (mixture of isomers) [compound 368, rac-(1R,2S)-2-(cyano(phenyl)(1-((1-(4-(trifluoromethyl)phenyl)azetidin-3-yl)methyl)piperidin-4-yl)methyl)cyclopentyl methylcarbamate] | 0.506
Cn1cccc1S(=O)(=O)c1ccc(N2CC(CN3CCC(C4(C5CCCC5)NCCc5ccccc54)CC3)C2)cc1 (centres unmarked) [compound 98, 1-cyclopentyl-1-(1-((1-(4-((1-methyl-1H-pyrrol-2-yl)sulfonyl)phenyl)azetidin-3-yl)methyl)piperidin-4-yl)-1,2,3,4-tetrahydroisoquinoline] | 0.021
CNC(=O)O[C@@H]1CCC[C@H]1C(Cn1ccnc1)(c1ccccc1)C1CCN(CC2CN(c3ccc(C#N)cc3)C2)CC1 (mixture of isomers) [compound 365, rac-(1R,2S)-2-(1-(1-((1-(4-cyanophenyl)azetidin-3-yl)methyl)piperidin-4-yl)-2-(1H-imidazol-1-yl)-1-phenylethyl)cyclopentyl methylcarbamate] | 0.281
CC(=O)O[C@@H]1CCC[C@H]1C(C#N)(c1ccccc1)C1CCN(CC2CN(c3ccc(S(=O)(=O)c4ccncc4)cc3)C2)CC1 (mixture of isomers) [compound 186, rac-(1R,2S)-2-(cyano(phenyl)(1-((1-(4-(pyridin-4-ylsulfonyl)phenyl)azetidin-3-yl)methyl)piperidin-4-yl)methyl)cyclopentyl acetate] | 1
CN1CCC(C2(C3C=CCCN3)CN(C)Cc3ccccc32)CC1 (centres unmarked) [compound 167, 2-methyl-4-(1-methylpiperidin-4-yl)-4-(1,2,5,6-tetrahydropyridin-2-yl)-1,2,3,4-tetrahydroisoquinoline] | 172
N#Cc1cc2cc(CCN3CCC(C4(C5CCCC5)NCCc5ccccc54)CC3)ccc2[nH]1 (centres unmarked) [compound 66, 5-(2-(4-(1-cyclopentyl-1,2,3,4-tetrahydroisoquinolin-1-yl)piperidin-1-yl)ethyl)-1H-indole-2-carbonitrile] | 1.1
O=C(c1ccn(-c2ccc(S(=O)(=O)C3CC3)cc2)c1)N1CCC(C2(C3CCCC3)NCCc3ccccc32)CC1 (centres unmarked) [compound 122, (4-(1-cyclopentyl-1,2,3,4-tetrahydroisoquinolin-1-yl)piperidin-1-yl)(1-(4-(cyclopropylsulfonyl)phenyl)-1H-pyrrol-3-yl)methanone] | 57.5
CCO[C@@H]1CCC[C@H]1C(C#N)(c1ccccc1)C1CCN(CC2CN(c3ccc(S(=O)(=O)c4ccncc4)cc3)C2)CC1 (mixture of isomers) [compound 199, rac-2-((1S,2R)-2-ethoxycyclopentyl)-2-phenyl-2-(1-((1-(4-(pyridin-4-ylsulfonyl)phenyl)azetidin-3-yl)methyl)piperidin-4-yl)acetonitrile] | 9
CC(=O)O[C@H]1CCC[C@@H]1C(C#N)(c1ccccc1F)C1CCN(CC2CN(c3ccc(S(=O)(=O)C4CC4)cc3)C2)CC1 (mixture of isomers) [compound 310, rac-(1S,2R)-2-(cyano(1-((1-(4-(cyclopropylsulfonyl)phenyl)azetidin-3-yl)methyl)piperidin-4-yl)(2-fluorophenyl)methyl) cyclopentyl acetate] | 0.045
COCCCN1CCC(C2(C3CCCC3)NCCc3ccccc32)CC1 (centres unmarked) [compound 73, 1-cyclopentyl-1-(1-(3-methoxypropyl)piperidin-4-yl)-1,2,3,4-tetrahydroisoquinoline] | 9.9
CC(=O)O[C@@H]1CCC[C@H]1C(C#N)(c1ccccc1)C1CCN(CC2CN(c3ccc(S(=O)(=O)c4ccncc4)cc3)C2)CC1 (mixture of isomers) [compound 207, rac-(1R,2S)-2-(cyano(phenyl)(1-((1-(4-(pyridin-4-ylsulfonyl)phenyl)azetidin-3-yl)methyl)piperidin-4-yl)methyl)cyclopentyl acetate] | 2.8
N#Cc1cc2ccc(C(=O)N[C@H]3CC[C@H](C4(C5CCCC5)NCCc5ccccc54)CC3)cc2[nH]1 (some centres unmarked) [compound 81, 2-cyano-N-((1r,4r)-4-(1-cyclopentyl-1,2,3,4-tetrahydroisoquinolin-1-yl)cyclohexyl)-1H-indole-6-carboxamide] | 1.9
N#Cc1ccc(OCCCN2CCC(C(C#N)(c3ccccc3)C3CCCC3)CC2)cc1 (centres unmarked) [compound 20, 4-(3-(4-(cyano(cyclopentyl)(phenyl)methyl)piperidin-1-yl)propoxy)benzonitrile] | 1.3
CNC(=O)O[C@H]1CCC[C@@H]1C(Cn1ccnc1)(c1ccccc1)C1CCN(CC2CN(c3ccc(S(=O)(=O)c4ccccc4)cc3)C2)CC1 (mixture of isomers) [compound 236, rac-(1S,2R)-2-(2-(1H-imidazol-1-yl)-1-phenyl-1-(1-((1-(4-(phenylsulfonyl)phenyl)azetidin-3-yl)methyl)piperidin-4-yl)ethyl)cyclopentyl methylcarbamate] | 0.012

From patent US10899738B2 (THE REGENTS OF THE UNIVERSITY OF MICHIGAN, priority 2016, dated 2021)
